# Experimental data reported in US12173002B2, “PRMT5 inhibitors and methods of use” (SHANGHAI APEIRON THERAPEUTICS COMPANY LIMITED, priority 2022, dated 2024).
# How the values were obtained:
# [1] = test system: HCT-116 MTAP(−/−) deficient cells; assay: Inhibitory activity on proliferation of HCT-116 MTAP(−/−) deficient cells (Cell-Titer Glo, 8 days); assay type: cell-based; conditions: Homo sapiens, HCT-116, 192 h, 8 days incubation
# Description: Test 1: Compound's inhibitory activity on proliferation of HCT-116 MTAP(−/−) deficient cells. P Materials and Cells: HCT-116 MTAP(−/−) deficient cells obtained from Kyinno Bio (China); RPMI-1640 medium, fetal bovine serum, and penicillin-streptomycin purchased from Thermo Fisher Scientific (America); 384-well plates from PerkinElmer (America); Cell-Titer Glo assay kit from Promega (America).
# Cell Culture: HCT116 MTAP(−/−) deficient cells were cultured in RPMI 1640 medium containing 10% fetal bovine serum and 1% penicillin-streptomycin at 37° C., 5% CO2. Only cells in logarithmic growth phase were used for experiments.
# (§1) Cell Proliferation Inhibition Assay: The compound's inhibitory activity on HCT-116 MTAP(−/−) deficient cells was assessed using the Cell-Titer Glo assay kit. Adjusting cell concentration, 40 μL was seeded into a 384-well plate and cultured overnight at 37° C., 5% CO2. Each well received 40 nL of the compound, achieving concentrations from 0 to 10,000 nM (starting concentration 10,000 nM, 3-fold dilution, 10 points), with 0.1% DMSO. The cell plate was incubated for 8 days at 37° C., 5% CO2. Cell-Titer Glo reagent (40 μL) was added to measure cell viability.
# [2] = test system: HCT-116 MTAP wild-type cells; assay: Inhibitory activity on proliferation of HCT-116 MTAP wild-type cells (Cell-Titer Glo, 8 days); assay type: cell-based; conditions: Homo sapiens, HCT-116, 192 h, 8 days incubation
# Description: Test 2: Compound's inhibitory activity on proliferation of HCT-116 MTAP wild-type cells.
# Materials and Cells: HCT-116 MTAP wild-type cells obtained from Kyinno Bio (China); RPMI-1640 medium, fetal bovine serum, and penicillin-streptomycin purchased from Thermo Fisher Scientific (America); 384-well plates from PerkinElmer (America); Cell-Titer Glo assay kit from Promega (America).
# Cell Culture: HCT116 MTAP wild-type cells were cultured in RPMI 1640 medium containing 10% fetal bovine serum and 1% penicillin-streptomycin at 37° C., 5% CO2. Only cells in logarithmic growth phase were used for experiments.
# as §1, with “MTAP wild-type” for “MTAP(−/−) deficient”
Compound,IC50 [1] [nM],IC50 [2] [nM]
"Nc1nc2ccc(C(=O)N(C3CC3)[C@@H]3COc4cc(Br)ccc43)cc2n2cncc12 (single isomer, unassigned) [Example 82]",52.9,1920
"CN(C(=O)c1ccc2nc(N)c3cncn3c2c1)[C@H]1COc2nc(C(F)(F)F)ccc21 (single isomer, unassigned) [Example 89]",> 3000,> 10000
"N#Cc1ccc2c(c1)OC[C@@H]2N(C(=O)c1ccc2nc(N)c3cncn3c2c1)C1CC1 (single isomer, unassigned) [Example 91]",2180,> 20000
"N#Cc1ccc2c(c1)OC[C@H]2N(C(=O)c1ccc2nc(N)c3cncn3c2c1)C1CC1 (single isomer, unassigned) [Example 92]",46.6,4750
"CN(C(=O)c1ccc2nc(N)c3cncn3c2c1)[C@H]1COCc2ccc(C(F)(F)F)cc21 (single isomer, unassigned) [Example 93]",> 3000,> 10000
"CN(C(=O)c1ccc2nc(N)c3cncn3c2c1)[C@@H]1COCc2ccc(C(F)(F)F)cc21 (single isomer, unassigned) [Example 94]",80.8,5170
"CN(C(=O)c1ccc2nc(N)c3cncn3c2c1)[C@H]1COc2cc(S(F)(F)(F)(F)F)ccc21 (single isomer, unassigned) [Example 103]",931,6260
"CN(C(=O)c1ccc2nc(N)c3cncn3c2c1)C1COCc2ccc(C(F)(F)F)cc21 (stereo not shown) [Example 8, 4-amino-N-methyl-N-(6-(trifluoromethyl)isochroman-4-yl) imidazo[1,5-a] quinoxaline-8-carboxamide]",106,6480
"CN(C(=O)c1cc2c(cc1C#N)nc(N)c1cncn12)[C@@H]1COc2cc(C(F)(F)F)ccc21 [Example 14, (S)-4-amino-7-cyano-N-methyl-N-(6-(trifluoromethyl)-2,3-dihydrobenzofuran-3-yl)imidazo[1,5-a] quinoxaline-8-carboxamide]",14.7,1280
"CN(C(=O)c1cc2c(cc1Cl)nc(N)c1cncn12)[C@@H]1COc2cc(C(F)(F)F)ccc21 [Example 27, (S)-4-amino-7-chloro-N-methyl-N-(6-(trifluoromethyl)-2,3-dihydrobenzofuran-3-yl)imidazo[1,5-a]quinoxaline-8-carboxamide]",4.4,842
"CN(C(=O)c1cc2c(cc1F)nc(N)c1cncn12)[C@@H]1COc2cc(S(C)(=O)=O)ccc21 [Example 38, (S)-4-amino-7-fluoro-N-methyl-N-(6-(methylsulfonyl)-2,3-dihydrobenzofuran-3-yl)imidazo[1,5-a] quinoxaline-8-carboxamide]",30,4060
"Cc1ncc(-c2ccc3c(c2)OCC3N(C(=O)c2ccc3nc(N)c4cncn4c3c2)C2CC2)cn1 (stereo not shown) [Example 72, 4-amino-N-cyclopropyl-N-(6-(2-methylpyrimidin-5-yl)-2,3-dihydrobenzofuran-3-yl)imidazo[1,5-a]quinoxaline-8-carboxamide]",117,> 20000
"Nc1nc2ccc(C(=O)N(C3CC3)C3COc4cc(Br)ccc43)cc2n2cncc12 (stereo not shown) [Example 74, 4-amino-N-(6-bromo-2,3-dihydrobenzofuran-3-yl)-N-cyclopro-pylimidazo[1,5-a] quinoxaline-8-carboxamide]",148,5990
"Nc1nc2ccc(C(=O)N(C3CC3)[C@H]3COc4cc(Br)ccc43)cc2n2cncc12 [Example 81, (R)-4-amino-N-(6-bromo-2,3-dihydrobenzofuran-3-yl)-N-cyclopropylimidazo[1,5-a]quinoxaline-8-carboxamide]",1790,2360
"C[C@@H]1OC[C@@H](N(C)C(=O)c2ccc3nc(N)c4cncn4c3c2)c2ccc(C(F)(F)F)cc21 [Example 105, 4-amino-N-methyl-N-((1S,4S)-1-methyl-7-(trifluoromethyl)isoch-roman-4-yl)imidazo [1,5-a]quinoxaline-8-carboxamide]",66.1,2190

# Continued, values first:
IC50 [1] [nM],IC50 [2] [nM],Compound
2640,4700,"Nc1nc2ccc(C(=O)N(C3CC3)[C@H]3COc4cc(C(F)(F)F)ccc43)cc2n2cncc12 (single isomer, unassigned) [Example 83]"
9030,10800,"Nc1nc2cnc(C(=O)N(C3CC3)[C@H]3COc4cc(C(F)(F)F)ccc43)cc2n2cncc12 (single isomer, unassigned) [Example 87]"
24.1,1850,"Nc1nc2cnc(C(=O)N(C3CC3)[C@@H]3COc4cc(C(F)(F)F)ccc43)cc2n2cncc12 (single isomer, unassigned) [Example 88]"
36.4,> 10000,"CN(C(=O)c1ccc2nc(N)c3cncn3c2c1)[C@@H]1COc2nc(C(F)(F)F)ccc21 (single isomer, unassigned) [Example 90]"
29.6,6570,"CN(C(=O)c1cc2c(cc1F)nc(N)c1cncn12)[C@@H]1COc2cc(-c3cnn(C)c3)ccc21 [Example 34, (S)-4-amino-7-fluoro-N-methyl-N-(6-(1-methyl-1H-pyrazol-4-yl)-2,3-dihydrobenzofuran-3-yl)imidazo[1,5-a] quinoxaline-8-carboxamide]"
22.4,2990,"CN(C(=O)c1ccc2nc(N)c3cncn3c2c1)C1CSc2cc(C(F)(F)F)ccc21 (stereo not shown) [Example 43, 4-amino-N-methyl-N-(6-(trifluoromethyl)-2,3-dihydrobenzo[b]thiophen-3-yl)imidazo [1,5-a]quinoxaline-8-carboxamide]"
310,> 10000,"CN(C(=O)c1ccc2nc(N)c3cncn3c2c1)C1CCOCc2cc(C(F)(F)F)ccc21 (stereo not shown) [Example 44, 4-amino-N-methyl-N-(8-(trifluoromethyl)-1,3,4,5-tetrahydrobenzo[c]oxepin-5-yl) imidazo[1,5-a] quinoxaline-8-carboxamide]"
54,3890,"CN(C(=O)c1ccc2nc(N)c3cncn3c2c1)[C@@H]1COc2cc(Cl)ccc21 [Example 70, (S)-4-amino-N-(6-chloro-2,3-dihydrobenzofuran-3-yl)-N-methylimidazo[1,5-a]quinoxaline-8-carboxamide]"
7.1,2070,"[2H]c1ncc2c(N)nc3ccc(C(=O)N(C)[C@@H]4COc5cc(C(F)(F)F)ccc54)cc3n12 [Example 78, (S)-4-amino-N-methyl-N-(6-(trifluoromethyl)-2,3-dihydrobenzofuran-3-yl)imidazo[1,5-a]quinoxaline-8-carboxamide-1-d]"
5.6,1300,"[2H]c1ncn2c1c(N)nc1ccc(C(=O)N(C)[C@@H]3COc4cc(C(F)(F)F)ccc43)cc12 [Example 79, (S)-4-amino-N-methyl-N-(6-(trifluoromethyl)-2,3-dihydrobenzo-furan-3-yl)imidazo [1,5-a]quinoxaline-8-carboxamide-3-d]"
88.1,> 10000,"CN(C(=O)c1cc2c(cc1F)nc(N)c1cncn12)[C@@H]1CCOc2cc(-c3cnn(C(F)(F)F)c3)ccc21 [Example 113, (R)-4-amino-7-fluoro-N-methyl-N-(7-(1-(trifluoromethyl)-1H-pyrazol-4-yl)chroman-4-yl) imidazo[1,5-a] quinoxaline-8-carboxamide]"
